Test results: patent US20090176786A1, “Benzoylurea Compounds and Use Thereof” (priority 2005, published 2009)
Read-outs that look alike come from different tables or passages of the source.

Assays:
Type in all cases: in vivo
[1] = test system: Frankliniella occidentalis; assay: Test Example 4: spray on cucumber, control value against Frankliniella occidentalis larvae; conditions: 168 h, spray 20 ml/cup on cucumber, 30 larvae, seven days after spraying; for pest or weed control at 12.5 ppm: test concentration 12.5 ppm; for pest or weed control at 50 ppm: test concentration 50 ppm
Protocol: The obtained preparation was diluted with water so that the active ingredient concentration became to a predetermined concentration to prepare a spray solution for test. […] were planted in polyethylene cups, and were grown until the first true leaf was developed. The spray solution for test prepared above was sprayed at the rate of 20 ml/cup on the cucumber. After the pesticidal solution sprayed onto the cucumber was dried, the first true leaf was cut off and then placed on a filter paper (diameter: 70 mm) containing water in a polyethylene cup (diameter: 110 mm). On the cucumber leaf, 30 larvae of Frankliniella occidentalis were released, and the polyethylene cup was capped. Seven days after spraying, the number of pests surviving on the cucumber leaf was counted, and a control value was calculated by the following equation: Control value(%)={1−(Cb×Tai)/(Cai×Tb)}×100 wherein, each symbol has following meaning: Cb: the number of pests before treatment in a non-treated area Cai: the number of pests at the time of observation in a non-treated area Tb: the number of pests before treatment in a treated-area Tai: the number of pests at the time of observation in a treated-area. […] The test concentrations of the other present compounds were 50 ppm.

Plutella xylostella = assay: Test Example 2: cabbage root immersion (systemic), dead pest rate of Plutella xylostella larvae; conditions: for pest or weed control at 5 ppm / pest or weed control at 25 ppm / pest or weed control at 1 ppm: Plutella xylostella, 120 h; for pest or weed control at 5 ppm: read-out: dead pest rate; for pest or weed control at 1 ppm: test concentration of 1 ppm
Protocol: In 0.25 mL of a mixture solution of Sorgen TW-20 (manufactured by Daiichi Industries Pharmaceuticals, Co., Ltd.) and acetone (mixture volume ratio; Sorgen TW-20:acetone=1:19), 2.5 mg of the present compound (1), (2), (3), (4), (7), (10), (11), (12), (16), (18), (19), (20), (21), (22), (25), (30), (36), (37), (41), (42), (52), (54), (56), (57), (60), (62), (105) or (109) was dissolved. The solution was diluted with ion-exchanged water so that the active ingredient concentration became to a predetermined concentration to prepare a pesticidal solution for test of the test compound. The root part of cabbages in the fourth leaf period were washed with tap water to remove soils, and then immersed in the pesticidal solution for test. After 5 days from immersion of the root part, the root part was removed, and the leaves and stems were put in a cup (volume; 180 mL). In the cup 10 second-instar larvae of Plutella xylostella were released, and the cup was stored at 24° C. After 5 days, the number of dead pests was counted, and the dead pest rate was calculated by the following equation:
(§1) Dead pest rate(%)=(the number of dead pests/the number of tested pests)×100
The test concentrations of the other present compounds were 25 ppm.

Spondoptela litura = assay: Test Example 3: treated artificial diet (Insecta LF), dead pest rate of Spondoptela litura larvae; conditions: 144 h, 2 mL on Insecta LF diet, 5 fourth-instar larvae, after 6 days
From the text: Ten parts of the present compound (1) to (5), (7) to (13), (18) to (33), (35) to (49), (52) to (56), (58) to (61), (71), (73) to (77), (79), (80), (82), (83), (93), (94), (95), (96), (97), (100) to (109), (111), (112), (115), (117), (119), (121), or (123) to (133), 35 parts of white carbon containing 50 parts of polyoxyethylene alkyl ether sulfate ammonium salt, and 55 parts of water were mixed, and finely ground by a wet grinding method to obtain a preparation. The obtained preparation was diluted with water so that the active ingredient concentration became to 500 ppm to prepare a pesticidal solution for test. On the bottom of a polyethylene cup having a diameter of 5.5 cm, a filter paper having a diameter of 5.5 cm was placed, on which Insecta LF (Nippon Agriculture Industries, Co., Ltd.) sliced in a thickness of 6 mm and further cut half was laid, and to which 2 mL of the above-described pesticidal solution for test was added. After air-dried, 5 fourth-instar larvae of Spondoptela litura were released in the cup, and the cup was capped. After 6 days, the number of dead pests was counted, and the dead pest rate was calculated by the following equation:
as §1

[2] = test concentration of 5 ppm, root immersion 5 days, 10 second-instar larvae, after 5 days at 24° C.
[3] = test concentration 25 ppm, root immersion 5 days, 10 second-instar larvae, after 5 days at 24° C.
[4] = root immersion 5 days, 10 second-instar larvae, after 5 days at 24° C.

CN(C(=O)NC(=O)c1c(F)cccc1F)c1ccc(SC(F)(F)F)cc1 [(7)]
pest or weed control at 12.5 ppm [1]: 100% | pest or weed control at 5 ppm (Plutella xylostella; [2]): 100%

COCN(C(=O)c1c(F)cccc1F)C(=O)N(C)c1ccc(SC(F)(F)F)cc1F [(11)]
pest or weed control at 25 ppm (Plutella xylostella; [3]): 100%

CCSc1ccc(N(C)C(=O)N(C)C(=O)c2c(F)cccc2F)c(F)c1 [(16)]
pest or weed control at 25 ppm (Plutella xylostella; [3]): 100%

CN(C(=O)NC(=O)c1c(F)cccc1F)c1ccc([S+]([O-])C(F)(F)F)cc1F (stereo not shown) [(18)]
pest or weed control at 1 ppm (Plutella xylostella; [4]): 100%

CN(C(=O)c1c(F)cccc1F)C(=O)N(C)c1ccc([S+]([O-])C(F)(F)F)cc1F (stereo not shown) [(19)]
pest or weed control at 1 ppm (Plutella xylostella; [4]): 100%

CN(C(=O)c1c(F)cccc1F)C(=O)N(C)c1ccc(S(=O)(=O)C(F)(F)F)cc1F [(21)]
pest or weed control at 1 ppm (Plutella xylostella; [4]): 100%

CN(C(=O)c1c(F)cccc1F)C(=O)N(C)c1ccc(SC(F)(F)C(F)(F)C(F)(F)F)cc1F [(22)]
pest or weed control at 3.2 ppm ([1]; test concentration 3.2 ppm): 100% | pest or weed control at 5 ppm (Plutella xylostella): 100%

CN(C(=O)NC(=O)c1c(F)cccc1Cl)c1ccc(SC(F)(F)C(F)F)cc1F [(23)]
pest or weed control at 12.5 ppm [1]: 100%

CN(C(=O)NC(=O)c1c(F)cccc1F)c1ccc([S+]([O-])C(F)(F)C(F)F)cc1F (stereo not shown) [(24)]
pest or weed control at 12.5 ppm [1]: 100%

CN(C(=O)NC(=O)c1c(F)cccc1F)c1ccc(S(=O)(=O)C(F)(F)C(F)F)cc1F [(25)]
pest or weed control at 12.5 ppm [1]: 100% | pest or weed control at 5 ppm (Plutella xylostella; [2]): 100%

CN(C(=O)NC(=O)c1c(F)cccc1F)c1ccc(SC(F)(F)C(F)(F)C(F)(F)F)cc1F [(28)]
pest or weed control at 50 ppm [1]: 100%

CN(C(=O)NC(=O)c1c(F)cccc1Cl)c1ccc(SC(F)(F)C(F)(F)C(F)(F)F)cc1F [(29)]
pest or weed control at 50 ppm [1]: 100%

CN(C(=O)NC(=O)c1c(F)cccc1F)c1ccc(SC(F)(F)C(F)(F)F)cc1F [(30)]
pest or weed control at 50 ppm [1]: 100% | pest or weed control at 5 ppm (Plutella xylostella; [2]): 100%

CN(C(=O)NC(=O)c1c(F)cccc1F)c1ccc(SC(F)(F)C(F)C(F)(F)F)cc1F (stereo not shown) [(31)]
pest or weed control at 50 ppm [1]: 100%

CN(C(=O)NC(=O)c1c(F)cccc1F)c1ccc(SC(F)F)cc1Cl [(34)]
pest or weed control at 50 ppm [1]: 100%

Cc1cc(SC(F)(F)F)ccc1N(C)C(=O)NC(=O)c1c(F)cccc1F [(36)]
pest or weed control at 12.5 ppm [1]: 100% | pest or weed control at 5 ppm (Plutella xylostella; [2]): 100%

CN(C(=O)NC(=O)c1c(F)cccc1F)c1ccc(C(=O)OC(C)(C)C)cc1F [(37)]
dead pest rate (Plutella xylostella; [3]): 100%

CN(C(=O)c1c(F)cccc1F)C(=O)N(C)c1ccc(S(=O)(=O)C(F)(F)C(F)F)cc1F [(40)]
pest or weed control at 12.5 ppm [1]: 100%

CCN(C(=O)N(C)C(=O)c1c(F)cccc1F)c1ccc(SC(F)(F)F)cc1F [(41)]
pest or weed control at 50 ppm [1]: 100% | pest or weed control at 25 ppm (Plutella xylostella; [3]): 100%

Cc1cc(SC(F)(F)F)ccc1N(C)C(=O)N(C)C(=O)c1c(F)cccc1F [(42)]
pest or weed control at 25 ppm (Plutella xylostella; [3]): 100%

CN(C(=O)c1c(F)cccc1Cl)C(=O)N(C)c1ccc(SC(F)(F)C(F)(F)C(F)(F)F)cc1F [(45)]
pest or weed control at 50 ppm [1]: 100%

CN(C(=O)c1c(F)cccc1F)C(=O)N(C)c1ccc(SC(F)(F)C(F)C(F)(F)F)cc1F (stereo not shown) [(47)]
pest or weed control at 50 ppm [1]: 100%

Cc1c(SC(F)(F)C(F)(F)F)ccc(N(C)C(=O)N(C)C(=O)c2c(F)cccc2F)c1C [(49)]
pest or weed control at 50 ppm [1]: 100%

CC(=O)N(C(=O)c1c(F)cccc1F)C(=O)N(C)c1ccc(SC(F)(F)F)cc1F [(52)]
pest or weed control at 5 ppm (Plutella xylostella; [2]): 100%

CN(C(=O)N(C(=O)c1c(F)cccc1F)S(C)(=O)=O)c1ccc(SC(F)(F)F)cc1F [(54)]
pest or weed control at 25 ppm (Plutella xylostella; [3]): 100%

CCN(C(=O)c1c(F)cccc1F)C(=O)N(C)c1ccc(SC(F)(F)F)cc1F [(56)]
pest or weed control at 50 ppm [1]: 100% | pest or weed control at 25 ppm (Plutella xylostella; [3]): 100%

CN(C(=O)NC(=O)c1c(F)cccc1F)c1ccc(SC(F)F)cc1F [(57)]
pest or weed control at 5 ppm (Plutella xylostella; [2]): 100%

C#CCN(C(=O)c1c(F)cccc1F)C(=O)N(C)c1ccc(SC(F)(F)F)cc1F [(60)]
pest or weed control at 25 ppm (Plutella xylostella; [3]): 100%

CN(C(=O)N(C(=O)c1c(F)cccc1F)C1CC1)c1ccc(SC(F)(F)F)cc1F [(69)]
pest or weed control at 50 ppm [1]: 100%

CN(C(=O)N(CC1CC1)C(=O)c1c(F)cccc1F)c1ccc(SC(F)(F)F)cc1F [(71)]
pest or weed control at 50 ppm [1]: 100% | pest or weed control at 500 ppm (Spondoptela litura): 100%

CSCCN(C(=O)c1c(F)cccc1F)C(=O)N(C)c1ccc(SC(F)(F)F)cc1F [(73)]
pest or weed control at 50 ppm [1]: 100%

CN(C(=O)N(Cc1ccccn1)C(=O)c1c(F)cccc1F)c1ccc(SC(F)(F)F)cc1F [(76)]
pest or weed control at 50 ppm [1]: 100%

CN(C(=O)N(C(=O)c1c(F)cccc1F)N1CCOCC1)c1ccc(SC(F)(F)F)cc1F [(79)]
pest or weed control at 500 ppm (Spondoptela litura): 100%

CN(C(=O)N(CCN1CCOCC1)C(=O)c1c(F)cccc1F)c1ccc(SC(F)(F)F)cc1F [(80)]
pest or weed control at 500 ppm (Spondoptela litura): 100%

CN(C(=O)NC(=O)c1c(Cl)cccc1Cl)c1ccc(SC(F)(F)F)cc1F [(95)]
pest or weed control at 500 ppm (Spondoptela litura): 100%

CN(C(=O)c1c(Cl)cccc1Cl)C(=O)N(C)c1ccc(SC(F)(F)F)cc1F [(96)]
pest or weed control at 500 ppm (Spondoptela litura): 100%

CN(C(=O)c1c(F)cccc1F)C(=O)N(C)c1ccc(SC(F)(F)F)cc1Cl [(104)]
pest or weed control at 50 ppm [1]: 100%

Cc1cc(SC(F)(F)C(F)(F)F)ccc1N(C)C(=O)NC(=O)c1c(F)cccc1F [(105)]
pest or weed control at 50 ppm [1]: 100% | pest or weed control at 25 ppm (Plutella xylostella; [3]): 100%

Cc1cc(SC(F)(F)C(F)(F)F)ccc1N(C)C(=O)N(C)C(=O)c1c(F)cccc1F [(106)]
pest or weed control at 50 ppm [1]: 100%

CN(C(=O)NC(=O)c1c(F)cccc1F)c1ccc(SC(F)(F)C(F)(F)F)cc1Cl [(107)]
pest or weed control at 50 ppm [1]: 100%

CN(C(=O)c1c(F)cccc1F)C(=O)N(C)c1ccc(SC(F)(F)C(F)(F)F)cc1Cl [(108)]
pest or weed control at 50 ppm [1]: 100%

CN(C(=O)NC(=O)c1c(F)cccc1F)c1ccc(SC(F)(F)C(F)OC(F)(F)F)cc1F (stereo not shown) [(109)]
pest or weed control at 50 ppm [1]: 100% | pest or weed control at 25 ppm (Plutella xylostella; [3]): 100%

CN(C(=O)c1c(F)cccc1F)C(=O)N(C)c1ccc(SC(F)(F)C(F)OC(F)(F)F)cc1F (stereo not shown) [(110)]
pest or weed control at 50 ppm [1]: 100%

CN(C(=O)c1c(F)cccc1F)C(=O)N(C)c1ccc(SC(F)(F)F)cc1 [(117)]
pest or weed control at 50 ppm [1]: 100% | pest or weed control at 500 ppm (Spondoptela litura): 100%

COc1cccc(CN(C(=O)c2c(F)cccc2F)C(=O)N(C)c2ccc(SC(F)(F)F)cc2F)c1 [(119)]
pest or weed control at 500 ppm (Spondoptela litura): 100%

CSc1ccc(N(C)C(=O)NC(=O)c2c(F)cccc2F)c(C(F)(F)F)c1 [(121)]
pest or weed control at 500 ppm (Spondoptela litura): 100%

Cc1cc(SC(F)(F)C(F)F)ccc1N(C)C(=O)N(C)C(=O)c1c(F)cccc1F [(131)]
pest or weed control at 50 ppm [1]: 100%
